Data published in US6303612A, “Derivatives of hydroxyphenylsulfanylbenzoic and hydroxphenylsulfanylarylacetic acids” (Leciva, A.S., priority 1998, dated 2001).
Converted amounts (≈) assume the structure as drawn. Read-outs that look alike come from different tables or passages of the source.

What was measured:
Wistar-Han rats = experiment: Inhibition of carrageenan edema; type: in vivo; settings: Rattus norvegicus, read-out: CE: inhibition of carrageenan-induced edema, % of inh.
LTD4 receptor = molecular target: T1, LTD4 receptor (Cavia porcellus, UniProt Q2NNR5); experiment: LTD4 receptor binding study; settings: 3H-LTD4, guinea-pig lung membranes; for IC50: read-out: Inh. of LTD4 rec. binding, IC50
T1 construct: The membrane fraction was prepared from male guinea-pig lungs; from tissue; host or cells: male guinea-pig lung membranes
T1 sequence (Q2NNR5 1-340): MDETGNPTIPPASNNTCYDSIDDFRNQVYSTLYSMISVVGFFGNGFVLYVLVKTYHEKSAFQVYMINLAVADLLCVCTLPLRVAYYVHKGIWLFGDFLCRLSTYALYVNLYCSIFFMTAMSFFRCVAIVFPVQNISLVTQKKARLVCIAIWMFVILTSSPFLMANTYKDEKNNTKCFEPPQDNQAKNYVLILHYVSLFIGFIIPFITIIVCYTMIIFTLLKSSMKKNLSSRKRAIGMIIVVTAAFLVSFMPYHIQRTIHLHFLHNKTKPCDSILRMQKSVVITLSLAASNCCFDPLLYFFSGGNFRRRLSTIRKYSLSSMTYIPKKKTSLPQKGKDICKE
Description: LTD4 Receptor Binding Study
This study was performed according to the method of Burns and coworkers (Burns R. F. et al.: Life Sci. 33, 645 (1983)). The membrane fraction was prepared from male guinea-pig lungs, and 4 mg of this fraction were incubated with 0.4 nM ^3 H-LTD4 for 60 min at 25° C. in 100 μl of the incubated mixture. The nonspecific binding was determined in the presence of 0.1 μM LTD4. The filtration of the membranes, washing, and radioactivity measurement were as above.

[1] = test system: peroxidation of lipids from the hepatic cells membranes; experiment: Antioxidant effect in vitro; type: biochemical; settings: at 100 μg
Excerpt: Antioxidant Effect in vitro
The end-product, malonic dialdehyde, was transformed to coloured complex with thiobarbituric acid and determined spectrophotometrically. The antioxidant effect was expressed in % of peroxidation inhibition in the presence of the compound tested in comparison to a control sample.

[2] = test system: LTB4 production in rat polymorphonuclear cells; experiment: Ex vivo inhibition of LTB4 production (LTB4 biosynthesis); type: cell-based; settings: for IC50: Rattus norvegicus, read-out: Inh. of LTB4 biosynth., IC50; for Inh. of LTB4 biosynth., %: at 30 μg (%/μg)
Description: Ex vivo Inhibition of LTB4 Production The production of LTB4 was determined in rat polymorphonuclear cells from pleural exudate elicited by heat-activated rat serum (Palmer R. M. J., Salmon J. A.: Immunology 50, 65 (1983)). The cells were stimulated with the Ca ionophore A 23187 (Sigma) and incubated with various concentrations of the drugs tested. The sample containing only buffer was used for the determination of unaffected biosynthesis; the complete inhibition was measured in a sample with 100 μg of NDGA in 1 ml. LTB4 was determined in supernatant using a commercial RIA kit (Amersham).

male mice = experiment: Inhibition of arachidonic acid-induced ear inflammation in mice; type: in vivo; settings: Mus musculus, po, 1 h
Description: Inhibition of Arachidonic Acid-induced Ear Inflammation in Mice (Opas E. E. et al.: J. Invest. Dermatol. 84, 253 (1985) Ear inflammation was induced in male mice by 20 μl of arachidonic acid dissolved in acetone (concentration 100 mg/ml). The mice were sacrificed 1 h after application of arachidonic acid and the ears were cut off by standard means. The other, vehicle-treated ear of the same animal served as a control. The degree of ear hyperemia and the weight of ear lobes were evaluated. Test compounds were administered orally 1 h before the induction of inflammation.

rats = experiment: Inhibition of carrageenan-induced pleuritis in rats; type: in vivo; settings: Rattus norvegicus, po, 4 h
Description: Inhibition of Carrageenan-induced Pleuritis in Rats
(Hidaka T. J.: Pharm. Pharmacol. 38, 242 (1986) 1 ml of 0.5% carrageenan solution in saline was administered intrapleurally to experimental animals under mild ether anesthesia. Test drugs were administered in single oral dose 1 h before carrageenan injection, 4 h following the carrageenan application the rats were killed and exudate was withdrawn from opened pleural cavity. The volume of exudate, its cellularity and total cell number were determined.

LTB4 receptor = LTB4 receptor (Cavia porcellus, UniProt H0VYV8); experiment: LTB4 receptor binding study; settings: 3H-LTB4, guinea-pig spleen membranes; for IC50: read-out: Inh. of LTB4 rec. binding, IC50; for inhibition at 20 µM: read-out: Inh. of LTB4 rec. binding, %
LTB4 receptor, sequence (H0VYV8 1-348): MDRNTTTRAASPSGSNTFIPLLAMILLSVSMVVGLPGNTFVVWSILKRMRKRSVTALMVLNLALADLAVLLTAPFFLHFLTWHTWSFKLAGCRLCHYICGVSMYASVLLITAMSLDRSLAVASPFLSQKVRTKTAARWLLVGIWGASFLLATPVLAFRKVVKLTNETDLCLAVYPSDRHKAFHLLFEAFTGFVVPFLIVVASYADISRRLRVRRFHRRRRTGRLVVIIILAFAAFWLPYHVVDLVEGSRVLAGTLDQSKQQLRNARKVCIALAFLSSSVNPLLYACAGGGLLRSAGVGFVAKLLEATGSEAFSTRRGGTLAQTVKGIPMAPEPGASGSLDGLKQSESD
Description: LTB4 Receptor Binding Study
A slightly modified method of Cheng and coworkers (Cheng J. B. et al.: J. Pharm. Expl. Ther. 236, 126 (1986)) was used. The membrane fraction was prepared from male guinea-pig spleen; 2 mg of membranes were incubated with 0.3 nM ^3 H-LTB4 at 25° C. for 30 min in 100 μl of the incubated mixture. The nonspecific binding was determined in the presence of 0.1 μM LTB4. The membranes were filtered though Whatman GF/C paper and washed triply with buffer. The radioactivity was measured by liquid scintillation spectrometry, and the specific binding of ^3 H-LTB4 to the receptor was determined.

[3] = read-out: Inh. of LTD4 rec. binding, %
[4] = values with mark n: p > 0.05, read-out: Ear edema, D: edema of ear lobe, % of inh.
[5] = values with mark n: p > 0.05, read-out: Ear edema, E: hyperemia of ear lobe, % of inh.
[6] = dose 100 mg/kg, oral, values with mark n: p > 0.05, read-out: Experimental pleuritis, A: volume of exudate in pleural cavity, % of inh.
[7] = dose 100 mg/kg, oral, values with mark n: p > 0.05, read-out: Experimental pleuritis, B: number of cells, % of inh.
[8] = dose 100 mg/kg, oral, values with mark n: p > 0.05, read-out: Experimental pleuritis, C: cellularity in a volume unit, % of inh.

Row | IC50 (LTD4 receptor) | inhibition at 100 µM (LTD4 receptor; [3]) | IC50 [2] | IC50 (LTB4 receptor) | inhibition at 20 µM (LTB4 receptor) | inhibition at 20 µM (LTD4 receptor; at 20 μM, read-out: Inh. of LTD4 rec. binding, %) | SMILES | inhibition in vivo at 100 mg/kg (Wistar-Han rats; dose 100 mg/kg) | Antiox. effect, % of peroxidation inhibition [1] | Inh. of LTB4 biosynth., % [2] | inhibition in vivo at 200 mg/kg (male mice; [4]) | inhibition in vivo at 200 mg/kg (male mice; [5]) | inhibition in vivo at 100 mg/kg (rats; [6]) | inhibition in vivo at 100 mg/kg (rats; [7]) | inhibition in vivo at 100 mg/kg (rats; [8]) | inhibition in vivo at 100 mg/kg (Wistar-Han rats) | inhibition in vivo at 100 mg/kg (rats; read-out: Experimental pleuritis, A: volume of exudate in pleural cavity, % of inh.) | inhibition in vivo at 100 mg/kg (rats; read-out: Experimental pleuritis, B: number of cells, % of inh.) | inhibition in vivo at 100 mg/kg (rats; read-out: Experimental pleuritis, C: cellularity in a volume unit, % of inh.)
1 | 1.7 µM | 86% | 0.08 mg/L (≈ 0.19 µM) | 30.1 µM | 39% |  | O=C(O)c1ccccc1Sc1ccc(OCc2ccc3cc(Cl)ccc3n2)cc1 [Compound 21] | 18% | 0% | 100% | 7% | 3% | 15% | 12% | 4% |  |  |  | 
2 | 1.15 µM |  | 0.46 mg/L (≈ 1.06 µM) | 58.9 µM | 40% | 83% | O=C(O)Cc1ccccc1Sc1cccc(OCc2ccc3cc(Cl)ccc3n2)c1 [Compound 31, 2-(3-(6-Chloroquinoline-2-ylmethoxy)phenylsulfanyl)phenylacetic Acid] | 13% | 4% | 100% | 16% | 11% | 24% | 75% | 39% |  |  |  | 
3 | 37.5 µM | 71% |  |  | 19% |  | CCCc1c(OCCCOc2ccc(Sc3ccccc3CC(=O)O)cc2)ccc(C(C)=O)c1O [Compound 25, 2-(4-(3-(4-Acetyl-3-hydroxy-2-propylphenoxy)propoxy)phenylsulfanyl)phenylacetic Acid] | 7% | 23% | 100% | 20% | 16% | 4% | 38% | 44% |  |  |  | 
4 | 26.1 µM | 88% | 0.8 mg/L (≈ 1.71 µM) | 5.2 µM | 98% |  | CCCc1c(OCCOc2cccc(Sc3ccc(C(=O)O)cc3)c2)ccc(C(C)=O)c1O [Compound 2, 4-(3-(2-(4-Acetyl-3-hydroxy-2-propylphenoxy)ethyloxy)phenylsulfanyl)benzoicAcid] | 30% | 41% | 100% | 18% | 2% | 2% | 43% | 46% |  |  |  | 
5 | 4.1 µM | 100% |  | 20.6 µM | 50% |  | CCCc1c(OCCCOc2cccc(Sc3ccccc3C(=O)O)c2)ccc(C(C)=O)c1O [Compound 6, 2-(3-(3-(4-Acetyl-3-hydroxy-2-propylphenoxy)propoxy)phenylsulfanyl)benzoic Acid] | 22% | 19% | 73% | 9% | 8% | 26% | 29% | 6% |  |  |  | 
6 | 13.6 µM | 100% |  | 12 µM | 68% |  | CCCc1c(OCCCCOc2ccc(Sc3ccccc3C(=O)O)cc2)ccc(C(C)=O)c1O [Compound 7] | 41% | 16% | 100% | 16% | 5% | 14% | 35% | 26% |  |  |  | 
7 | 1.6 µM | 100% | 0.02 mg/L (≈ 0.0516 µM) | 92.9 µM | 24% |  | O=C(O)c1ccc(Sc2cccc(OCc3ccc4ccccc4n3)c2)cc1 [Compound 18] | 10% | 16% | 100% | 13% | 8% | 28% | 29% | 1% |  |  |  | 
8 | 0.6 µM | 95% | 28 mg/L (≈ 69.7 µM) | 24 µM | 50% |  | O=C(O)Cc1ccccc1Sc1ccc(OCc2ccc3ccccc3n2)cc1 [Compound 29, 2-(4-(Quinoline-2-ylmethoxy)phenylsulfanyl)phenylacetic Acid] | 52% | 0% | 44% | 2% | 22% | 3% | 27% | 25% |  |  |  | 
9 | 19 µM | 97% | 0.48 mg/L (≈ 0.999 µM) | 20 µM | 50% |  | CCCc1c(OCCCOc2ccc(Sc3ccc(C(=O)O)cc3)cc2)ccc(C(C)=O)c1O [Compound 3, 4-(4-(3-(4-Acetyl4-3-hydroxy-2-propylphenoxy)propoxy)phenylsulfanyl)benzoicAcid] | 32% | 33% | 100% | 8% | 5% | 2% | 27% | 28% |  |  |  | 

Row | SMILES | IC50 (LTD4 receptor) | inhibition at 100 µM (LTD4 receptor; [3]) | IC50 [2] | IC50 (LTB4 receptor) | inhibition at 20 µM (LTB4 receptor) | inhibition at 20 µM (LTD4 receptor; at 20 μM, read-out: Inh. of LTD4 rec. binding, %) | inhibition in vivo at 100 mg/kg (Wistar-Han rats; dose 100 mg/kg) | Antiox. effect, % of peroxidation inhibition [1] | Inh. of LTB4 biosynth., % [2] | inhibition in vivo at 200 mg/kg (male mice; [4]) | inhibition in vivo at 200 mg/kg (male mice; [5]) | inhibition in vivo at 100 mg/kg (rats; [6]) | inhibition in vivo at 100 mg/kg (rats; [7]) | inhibition in vivo at 100 mg/kg (rats; [8]) | inhibition in vivo at 100 mg/kg (Wistar-Han rats) | inhibition in vivo at 100 mg/kg (rats; read-out: Experimental pleuritis, A: volume of exudate in pleural cavity, % of inh.) | inhibition in vivo at 100 mg/kg (rats; read-out: Experimental pleuritis, B: number of cells, % of inh.) | inhibition in vivo at 100 mg/kg (rats; read-out: Experimental pleuritis, C: cellularity in a volume unit, % of inh.)
10 | CCCc1c(OCCCOc2ccc(Sc3ccccc3C(=O)O)cc2)ccc(C(C)=O)c1O [Compound 4] | 10.4 µM | 100% |  | 13 µM | 47% |  |  | 34% | 100% | 6% | 2% |  |  |  | 35% | 10% | 35% | 30%
